# Experimental data published in patent publication US8791132B2, “Compounds and methods for treatment of hypertension” (Medivation Technologies, Inc., priority 2011, dated 2014).
# Values joined by “and” are separate entries in the source; they are usually repeats but may differ in a detail not shown here. Equal values may be shown once.
# Assays:
# [1] = target: T1, human recombinant adrenergic α2B receptor (Homo sapiens, UniProt P18089); experiment: Radioligand binding, adrenergic α2B ([3H]Rauwolscine); settings: for Percentage inhibition of ligand binding, Adrenergic α2B (0.1 μM): compound at 0.1 μM; for Percentage inhibition of ligand binding, Adrenergic α2B (0.1 μM) / inhibition at 0.03 µM / inhibition at 0.1 µM / Percentage inhibition of ligand binding, Adrenergic α2B (0.03 μM): [3H]Rauwolscine, repeat datapoints each shown; for Ki: read-out: Ki α2B; for inhibition at 0.03 µM: read-out: Percentage inhibition of ligand binding, Adrenergic α2B (0.03 μM), compound at 0.03 μM; for inhibition at 0.1 µM: read-out: Percentage inhibition of ligand binding, Adrenergic α2B (0.1 μM), compound at 0.1 μM; for Percentage inhibition of ligand binding, Adrenergic α2B (0.03 μM): compound at 0.03 μM
# T1 construct: expressed in transfected cells; host or cells: CHO-K1
# T1 sequence (P18089 1-450): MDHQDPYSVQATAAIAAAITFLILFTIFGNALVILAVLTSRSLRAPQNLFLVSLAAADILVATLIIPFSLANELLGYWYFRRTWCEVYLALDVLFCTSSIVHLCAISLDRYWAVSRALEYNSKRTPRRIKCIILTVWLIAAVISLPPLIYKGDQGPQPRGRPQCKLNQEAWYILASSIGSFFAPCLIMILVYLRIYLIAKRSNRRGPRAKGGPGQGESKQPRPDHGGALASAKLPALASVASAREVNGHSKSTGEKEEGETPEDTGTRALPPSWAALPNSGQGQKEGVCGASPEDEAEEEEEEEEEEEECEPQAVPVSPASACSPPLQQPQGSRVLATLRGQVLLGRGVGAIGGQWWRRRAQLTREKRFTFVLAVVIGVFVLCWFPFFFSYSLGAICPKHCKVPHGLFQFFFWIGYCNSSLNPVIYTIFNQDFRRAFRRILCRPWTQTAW
# How it was run: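 Assay used CHO-K1-expressed human α2B receptor in Tris-HCl pH 7.4 buffer with MgCl2, EDTA and BSA; 60 min incubation at 25 °C.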
# [2] = target: T2, rat adrenergic α1B receptor (Rattus norvegicus, UniProt P15823); experiment: Radioligand binding, adrenergic α1B ([3H]Prazosin); settings: [3H]Prazosin, repeat datapoints each shown; for Percentage inhibition of ligand binding, Adrenergic α1B (0.1 μM): compound at 0.1 μM; for inhibition at 0.03 µM: read-out: Percentage inhibition of ligand binding, Adrenergic α1B (0.03 μM), compound at 0.03 μM; for inhibition at 0.1 µM: read-out: Percentage inhibition of ligand binding, Adrenergic α1B (0.1 μM), compound at 0.1 μM
# T2 construct: rat adrenergic α1B receptor obtained from Wistar Rat liver; from tissue; host or cells: Wistar rat liver
# T2 sequence (P15823 1-515): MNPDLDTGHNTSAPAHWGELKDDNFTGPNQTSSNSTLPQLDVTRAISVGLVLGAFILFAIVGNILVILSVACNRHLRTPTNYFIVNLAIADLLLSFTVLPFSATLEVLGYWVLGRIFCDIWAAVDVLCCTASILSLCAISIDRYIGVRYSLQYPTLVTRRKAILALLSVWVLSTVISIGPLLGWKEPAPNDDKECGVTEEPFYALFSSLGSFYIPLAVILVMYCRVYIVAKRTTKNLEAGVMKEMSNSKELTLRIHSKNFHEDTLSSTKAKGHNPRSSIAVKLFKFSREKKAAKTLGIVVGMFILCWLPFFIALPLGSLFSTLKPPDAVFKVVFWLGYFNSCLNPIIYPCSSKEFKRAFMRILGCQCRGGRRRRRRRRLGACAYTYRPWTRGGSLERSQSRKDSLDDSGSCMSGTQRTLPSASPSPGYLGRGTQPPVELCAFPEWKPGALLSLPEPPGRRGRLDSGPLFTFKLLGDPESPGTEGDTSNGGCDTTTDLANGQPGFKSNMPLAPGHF
# How it was run: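 Specific binding, taken as total minus that remaining with 10 μM phentolamine, is measured after filtration and counting. Rat liver receptor preparation and 0.25 nM [3H]prazosin are incubated with compound in 50 mM Tris-HCl (pH 7.4, 0.5 mM EDTA) at 25° C for 60 min. Activity is reported as percent inhibition.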
# [3] = target: T3, human recombinant adrenergic α1D receptor (Homo sapiens, UniProt P25100); experiment: Radioligand binding, adrenergic α1D ([3H]Prazosin); settings: [3H]Prazosin, repeat datapoints each shown; for Percentage inhibition of ligand binding, Adrenergic α1D (0.1 μM): compound at 0.1 μM; for inhibition at 0.03 µM: read-out: Percentage inhibition of ligand binding, Adrenergic α1D (0.03 μM), compound at 0.03 μM; for inhibition at 0.1 µM: read-out: Percentage inhibition of ligand binding, Adrenergic α1D (0.1 μM), compound at 0.1 μM
# T3 construct: expressed in transfected cells; host or cells: HEK-293
# T3 sequence (P25100 1-572): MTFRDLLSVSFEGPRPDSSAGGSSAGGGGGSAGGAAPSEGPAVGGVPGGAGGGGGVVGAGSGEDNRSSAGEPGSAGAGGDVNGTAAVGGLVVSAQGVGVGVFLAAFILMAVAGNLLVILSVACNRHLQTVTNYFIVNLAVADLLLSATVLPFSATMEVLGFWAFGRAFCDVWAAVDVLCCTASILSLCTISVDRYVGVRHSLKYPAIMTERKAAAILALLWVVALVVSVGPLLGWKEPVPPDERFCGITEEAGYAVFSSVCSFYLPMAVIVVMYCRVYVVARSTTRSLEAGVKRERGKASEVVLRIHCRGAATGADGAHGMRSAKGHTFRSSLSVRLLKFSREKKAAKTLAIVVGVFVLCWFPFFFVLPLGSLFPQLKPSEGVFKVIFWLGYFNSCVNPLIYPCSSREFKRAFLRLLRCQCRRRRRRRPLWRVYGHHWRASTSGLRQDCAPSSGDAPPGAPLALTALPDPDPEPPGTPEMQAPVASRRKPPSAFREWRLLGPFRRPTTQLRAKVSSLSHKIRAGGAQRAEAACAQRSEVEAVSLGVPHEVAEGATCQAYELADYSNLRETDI
# Protocol: Compounds were incubated with 0.6 nM [3H]Prazosin for 60 min at 25° C. Non-specific binding was estimated in the presence of 10 μM phentolamine. Receptor proteins were filtered and washed, the filters were then counted to determine [3H]Prazosin specifically bound. […] Biochemical assay results are presented as the percent inhibition of specific binding in Table B1.
Compound,"Percentage inhibition of ligand binding, Adrenergic α2B (0.1 μM) [1] [%]",Ki [1] [nM],inhibition at 0.03 µM [1] [%],inhibition at 0.1 µM [1] [%],"Percentage inhibition of ligand binding, Adrenergic α1B (0.1 μM) [2]",inhibition at 0.03 µM [2] [%],inhibition at 0.1 µM [2] [%],"Percentage inhibition of ligand binding, Adrenergic α1D (0.1 μM) [3] [%]",inhibition at 0.03 µM [3] [%],inhibition at 0.1 µM [3] [%],"Percentage inhibition of ligand binding, Adrenergic α2B (0.03 μM) [1] [%]","Percentage inhibition of ligand binding, Adrenergic α1B (0.03 μM) ([2]; compound at 0.03 μM, 0.03 µM) [%]"
"Cc1ccc2c(c1)c1c(n2CNc2ccccn2)CCN(C)C1 [compound 120, (2,8-dimethyl-1,2,3,4-tetrahydro-pyrido[4,3-b]indol-5-ylmethyl)-pyridin-2-yl-amine]",70,20.5,39,55,22%,4,21,26,3,14,–,–
"Cc1ccc(CCn2c3c(c4cc(C)ccc42)CN(C)CC3)cc1 [compound 180, 2,3,4,5-tetrahydro-2,8-dimethyl-5-(4-methylphenethyl)-1H-pyrido[4,3-b]indole]",–,–,91,99,–,70,87,–,–,74,–,–
"Cc1ccc(CCn2c3c(c4ccccc42)CN(C)CC3)cc1 [compound 181, 2,3,4,5-Tetrahydro-2-methyl-5-(4-methylphenethyl)-1H-pyrido[4,3-b]indole]",–,–,70,92,–,-4,30,–,–,32,–,–
"CN1CCc2c(c3ccccc3n2CCc2ccccc2)C1 [compound 182, 2,3,4,5-Tetrahydro-2-methyl-5-phenethyl-1H-pyrido[4,3-b]indole]",–,–,83,91,–,13,29,–,–,16,–,–
"C/C(=C\n1c2c(c3cc(Cl)ccc31)CN(C)CC2)c1ccncc1 [compound 185, 8-chloro-2,3,4,5-tetrahydro-2-methyl-5-((E)-2-(pyridin-4-yl)prop-1-enyl)-1H-pyrido[4,3-b]indole]",97,3.8,73,94,–,63,86,–,47,58,77,–
C/C(=C\n1c2c(c3cc(C)ccc31)CN(C)CC2)c1ccc(C)nc1 [compound 186],101,0.52,94,100,55%,24,53,55,31,51,97,–
C/C(=C\n1c2c(c3cc(C)ccc31)CN(C)CC2)c1cnc(N(C)C)nc1 [compound 187],98,4.43,78,84,–,–,71,–,–,83,–,–
C/C(=C\n1c2c(c3cc(C)ccc31)CN(C)CC2)c1sccc1C [compound 189],107,0.86,96,104,31% and 55%,26,–,–,–,16,–,–
"Cc1ccc2c(c1)c1c(n2C2=C(c3ccc(C)s3)CCC2)CCN(C)C1 [compound 190, 2,8-dimethyl-5-(2-(5-methylthiophen-2-yl)cyclopent-1-enyl)-2,3,4,5-tetrahydro-1H-pyrido[4,3-b]indole]",99,2.26,88,84,15%,9,14,–,–,31,–,–
"Cc1ccc2c(c1)c1c(n2C2=C(c3ccc4c(ccn4C)c3)CCC2)CCN(C)C1 [compound 191, 2,8-dimethyl-5-(2-(1-methyl-1H-indol-5-yl)cyclopent-1-enyl)-2,3,4,5-tetrahydro-1H-pyrido[4,3-b]indole]",99,3.23,84,89,20%,2,10,–,–,43,–,–
CCN1CCc2c(c3cc(C)ccc3n2CCc2ccccc2)C1 [compound 201],–,–,16,36,–,22,50,–,–,18,–,–
CCN1CCc2c(c3cc(C)ccc3n2CCc2ccc(C)cc2)C1 [compound 202],–,–,7,22,–,29,52,–,–,52,–,–
CCN1CCc2c(c3cc(C)ccc3n2CC(O)c2ccc(C)cc2)C1 (stereo not shown) [compound 203],–,–,23,41,71%,37,–,–,–,47,–,–
CN1CCc2c(c3cccc(Cl)c3n2CCc2ccccc2)C1 [compound 216],106,0.95,98,103,–,34,65,–,38,–,–,47
COc1ccc(/C(C)=C/n2c3c(c4cc(Cl)ccc42)CCN(C)CC3)cc1F [compound 240],97,–,–,83,75%,–,74,47,–,44,–,–
COc1ccc(/C(C)=C/n2c3c(c4cc(C)ccc42)CCN(C)CC3)cc1F [compound 241],93,–,–,91,82%,–,81,49,–,47,–,–
